{"source": "patent US6730665B1", "about": "“Treatment of bone cancer” (Mayo Foundation for Medical Education and Research, priority 1999, dated 2004)", "key": {"female Fisher 344 rats [1]": {"test_system": "female Fisher 344 rats", "assay": "Growth plate histomorphometry and longitudinal bone growth rate in rats", "assay_type": "in vivo, rat", "conditions": "100 mg/kg/day oral gavage 13 days", "experimental": "Twenty-five female 3-month-old Fisher 344 rats, weighing approximately 141-160 g, were purchased from Harlan Sprague Dawley (Madison, Wis.). The rats were divided into 3 groups (8 or 9 rats/group) of a baseline group that was sacrificed on the first day of treatment, a control group that was treated with carrier (liposomes) only, and a 2ME treatment group. […] Fluorochromes were given juxta tail vein. Declomycin (20 mg/kg) was given on the first day of treatment and calcein (15 mg/kg) two days prior to sacrifice, in order to label mineralizing bone and cartilage. Twenty-four hours after the last dosage, rats were anesthetized with ketamine HCl (100 mg/kg):xylaxine HCl (10 mg/kg) and sacrificed by decapitation. […] Tibiae were quickly excised and fixed for histomorphometry in a solution of 70% ethanol.\nGrowth Plate Measurements The longitudinal bone growth rate was measured at 5 equally spaced sites across the growth plate as the distance between the declomycin and calcein labels that had been deposited into the mineralizing front of the hypertrophic zone of the growth plate divided by the 11 day interval between application of the sequential fluorochromes.\nGrowth plate thickness was measured as the mean distance between the zone of vascular invasion and the resting zone. Thicknesses of the proliferative zone and hypertrophic zone were also measured."}, "[2]": {"assay": "Serum cholesterol in 2ME treated rats", "assay_type": "in vivo, rat", "conditions": "100 mg/kg/day oral gavage 13 days"}, "[3]": {"test_system": "hFOB cells overexpressing estrogen receptor-alpha (hFOB-ERα)", "assay": "Cell survival, viable cell count with trypan blue", "assay_type": "cell-based, human", "conditions": "2 μM, 72 h", "description": "(§1) MG63 and TE85 human osteosarcoma cells, and ROS 17/2.8 rat osteosarcoma cells were grown in DMEM/F12 phenol-red free medium containing 10% charcoal-stripped fetal bovine serum (FBS) and supplemented with 100 units/ml penicillin, 100 μg/ml streptomycin. Cell were incubated at 37° C. under 5% CO2 in air. Cells were plated at 5×10^4 cells per well into 24 well plates containing 1 ml of medium per well. After allowing the cells to attach overnight, media in the wells were replaced with fresh 1 ml medium. Human fetal osteoblasts (hFOB) cells and hFOB cells overexpressing estrogen receptor-alpha (hFOB-ERα) and estrogen receptor-beta (hFOB-ERβ) were grown in DMEM/F12 medium containing FBS, penicillin, streptomycin and Geneticin (300 μg/mL). The laboratory of Dr. B. L. Riggs at Mayo Clinic provided primary human osteoblast (HOB) cells. HOB cells were basically established from cancellous bone obtained as waste from orthopedic procedures and cultured as explants to generate the osteoblast-like monolayers as described by Borke et al., J. Clin. Endocrinol. Metab., 1988, 67:1299-1304. […]\n(§2) Estrogen metabolites were diluted 1000 fold to give the final required concentrations in each well, and maintained for 72 hrs. […] Cell growth was measured by taking the viable cell count. At the end of metabolite treatment, cells were harvested, stained with trypan blue, and counted under a light microscope."}, "[4]": {"test_system": "hFOB cells overexpressing estrogen receptor-beta (hFOB-ERβ)", "assay": "Cell survival, viable cell count with trypan blue", "assay_type": "cell-based, human", "conditions": "2 μM, 72 h", "description": "as §1, §2"}, "female Fisher 344 rats [5]": {"test_system": "female Fisher 344 rats", "assay": "Cortical bone histomorphometry of rat tibia after oral 2ME", "assay_type": "in vivo", "conditions": "100 mg/kg/day oral gavage 13 days, mean ± SE", "description": "All studies were approved by the Institutional Animal Care and Use Committee of the Mayo Clinic, Rochester, Minn. Rats were kept in plastic cages (3 per cage) under standard conditions of a 12 hr dark and 12 hr light cycle with food (Purina Laboratory rodent diet 5001, Ralston-Purina, St. Louis, Mo.) and water ad libitum. Rooms were maintained at a temperature of 24° C.\nFluorochromes were given […] tail vein.\nBone histomorphometry Histomorphometric measurements were performed with the OsteoMeasure Analysis System (OsteoMetrics, Atlanta, Ga.), which consisted of a Pentium 1133 computer coupled to a photomicroscope and image analysis system. […] The region of interest was traced, and the line lengths and area bounded by lines were calculated automatically.\nCortical bone measurements Ground transverse sections, cut at a site just proximal to the tibia-fibula synostosis, were prepared for histomorphometric analysis of cortical bone as described by Merriam, G. R. et al., Steroids, 1980, 136: 1-11. The following values were obtained as described by Turner, R. T. et al., Endocrinology, 1998, 139:3712-3720: 1) cross-sectional bone area; 2) medullary area: 3) cortical bone area: 4) periosteal perimeter; 5) endocortical perimeter; 6) periosteal bone formation rate, calculated as the area of bone between the declomycin label given at the start of the experiment and periosteal perimeter divided by the post-labeling period of 11 days; 7) periosteal mineral apposition rate, an index of osteoblast activity which is calculated as the periosteal bone formation rate divided by the label perimeter; and 8) periosteal label perimeter, an index of osteoblast number, defined as the periosteal perimeter labeled with calcein.\nStatistical Analvses All values are expressed as mean±standard error (SE). Significant differences between groups were determined by Fisher's Protected Least Significant Difference post hoc test for multiple group comparisons following detection of significance by 1-way ANOVA. Significance was considered at p values ≦0.05."}, "MG63 cells": {"test_system": "MG63 cells", "assay": "Cytokine and growth factor mRNA levels by RNase protection assay", "assay_type": "cell-based, human", "conditions": "10 μM", "description": "Changes in steady state mRNA levels for cytokines implicated in the regulation of bone formation and resorption were measured using RNase Protection assays. For RNA isolation and RNase protection assays, MG63 cells were plated at 10^6 cells per T75 culture flask a day prior to metabolite treatment. The next day, the medium was removed and replaced with fresh medium containing 10 μM concentrations of 2ME and incubated for 12, 24, 48, and 72 hours. Cells were harvested and cell pellets were used for RNA isolation. Total cellular RNA was extracted and isolated using a modified organic solvent method and the RNA yields were determined spectrohotometrically at 260 nm. Total cellular RNA was analyzed by RNase protection assays using antisense RNA probes for transforming growth factor-beta (TGF-β), tumor necrosis factor (TNF) α and β, interleukin (IL) 1α, 1β, 1Ra, 6, 10, 12 (p35 and p40), interferon (IFN) β and γ, and lymphotoxin (LT) β. Quantitation of protected RNA fragments was performed by PhosphorImager analyses and normalized to ribosomal structural protein L32 or glyceraldehyde 3-phosphate dehydrogenase levels. Results are presented in FIG. 8 and Table 4, and are representative of 3 independent treatments."}, "[6]": {"test_system": "MG63 human osteosarcoma cells", "assay": "Cell survival, viable cell count with trypan blue", "assay_type": "cell-based", "conditions": "for cell death: 72 hrs", "description": "MG63 and TE85 human osteosarcoma cells, and ROS 17/2.8 rat osteosarcoma cells were grown in DMEM/F12 phenol-red free medium containing 10% charcoal-stripped fetal bovine serum (FBS) and supplemented with 100 units/ml penicillin, 100 μg/ml streptomycin. Cell were incubated at 37° C. under 5% CO2 in air. Cells were plated at 5×10^4 cells per well into 24 well plates containing 1 ml of medium per well. After allowing the cells to attach overnight, media in the wells were replaced with fresh 1 ml medium. Human fetal osteoblasts (hFOB) cells and hFOB cells overexpressing estrogen receptor-alpha (hFOB-ERα) and estrogen receptor-beta (hFOB-ERβ) were grown in DMEM/F12 medium containing FBS, penicillin, streptomycin and Geneticin (300 μg/mL). The laboratory of Dr. B. L. Riggs at Mayo Clinic provided primary human osteoblast (HOB) cells. HOB cells were basically established from cancellous bone obtained as waste from orthopedic procedures and cultured as explants to generate the osteoblast-like monolayers as described by Borke et al., J. Clin. Endocrinol. Metab., 1988, 67:1299-1304. Human FOB cells and hFOB cells stably transfected with estrogen receptors (ERs) were maintained at 34° C., while all other cells were incubated at 37° C. under 5% CO2 in air.\nEstrogen metabolites were diluted 1000 fold to give the final required concentrations in each well, and maintained for 72 hrs. The metabolites 2ME, 2OHE, and E2 were purchased from Sigma Chemical Company (St. Louis, Mo.). Stock solutions for each metabolite were made in 95% ethanol. Cell growth was measured by taking the viable cell count. At the end of metabolite treatment, cells were harvested, stained with trypan blue, and counted under a light microscope.\nMG63 cells were treated with 0, 2, and 10 μM concentrations of 2ME in the presence or absence of 100 nM ICI for 72 hours. The cells were harvested and the viable cell counts were taken after staining with trypan blue."}}, "note": "Entries after “also recorded” stand apart in the source; their conditions may differ.", "data": [{"smiles": "COc1cc2c(cc1O)CC[C@@H]1[C@@H]2CC[C@]2(C)[C@@H](O)CC[C@@H]12", "note": "[2ME, 2-methoxyestradiol]", "values": [{"measurement": "Proliferative zone thickness", "setting": "female Fisher 344 rats [1]; mean ± SE, control 42 ± 5", "value": "11 ± 3", "unit": "μm"}, {"measurement": "Hypertrophic zone thickness", "setting": "female Fisher 344 rats [1]; mean ± SE, control 46 ± 6", "value": "6 ± 2", "unit": "μm"}, {"measurement": "Growth plate thickness", "setting": "female Fisher 344 rats [1]; mean ± SE, control 153 ± 14", "value": "70±6", "unit": "μm"}, {"measurement": "effect on longitudinal bone growth (in words)", "setting": "female Fisher 344 rats [1]; proximal tibia, 100 mg/kg/day", "value": "decreased; also recorded: highly significant decreases"}, {"measurement": "longitudinal bone growth rate", "setting": "female Fisher 344 rats [1]; proximal tibia, control 55±2", "value": "20±2", "unit": "μm/day"}, {"measurement": "effect on serum cholesterol (in words)", "setting": "[2]", "value": "decreased; also recorded: highly significant decreases"}, {"measurement": "cell numbers reduced to", "setting": "[3]", "value": 24, "unit": "%"}, {"measurement": "cell numbers reduced to", "setting": "[4]", "value": 24, "unit": "%"}, {"measurement": "Bone Formation Rate", "setting": "female Fisher 344 rats [5]; cortical (periosteal) bone", "value": "5.32 ± 0.47", "unit": "mm^2 × 10^−3/day"}, {"measurement": "Mineral Apposition Rate", "setting": "female Fisher 344 rats [5]; cortical (periosteal) bone", "value": "1.34 ± 0.06", "unit": "μm/day"}, {"measurement": "Cortical Area", "setting": "female Fisher 344 rats [5]; cortical bone, tibia", "value": "2.28 ± 0.03"}, {"measurement": "Cross-sectional area", "setting": "female Fisher 344 rats [5]; cortical bone, tibia", "value": "2.98 ± 0.04", "unit": "mm^2"}, {"measurement": "Medullary Area", "setting": "female Fisher 344 rats [5]; cortical bone, tibia", "value": "0.70 ± 0.02", "unit": "mm^2"}, {"measurement": "increase of TGF-β1 mRNA level", "setting": "MG63 cells", "value": 177, "unit": "%"}, {"measurement": "increase of TGF-β2 mRNA level", "setting": "MG63 cells", "value": 289, "unit": "%"}, {"measurement": "increase of TGF-β3 mRNA level", "setting": "MG63 cells", "value": 178, "unit": "%"}, {"measurement": "IFN-β mRNA", "setting": "MG63 cells; 12-72 hours", "value": "Increased"}, {"measurement": "IFN-γ mRNA", "setting": "MG63 cells; 12-72 hours", "value": "Not detected"}, {"measurement": "IL-1 Ra mRNA", "setting": "MG63 cells; 12-72 hours", "value": "Not detected"}, {"measurement": "IL-1α mRNA", "setting": "MG63 cells; 12-72 hours", "value": "Not detected"}, {"measurement": "IL-1β mRNA", "setting": "MG63 cells; 12-72 hours", "value": "Not detected"}, {"measurement": "IL-6 mRNA", "setting": "MG63 cells; 12-72 hours", "value": "Not detected"}, {"measurement": "IL-10 mRNA", "setting": "MG63 cells; 12-72 hours", "value": "Not detected"}, {"measurement": "IL-12 p35 mRNA", "setting": "MG63 cells; 12-72 hours", "value": "Not detected"}, {"measurement": "IL-12 p40 mRNA", "setting": "MG63 cells; 12-72 hours", "value": "Not detected"}, {"measurement": "LT-β mRNA", "setting": "MG63 cells; 12-72 hours", "value": "Not detected"}, {"measurement": "TGF-β1 mRNA", "setting": "MG63 cells; 12-72 hours", "value": "Increased"}, {"measurement": "TGF-β2 mRNA", "setting": "MG63 cells; 12-72 hours", "value": "Increased"}, {"measurement": "TGF-β3 mRNA", "setting": "MG63 cells; 12-72 hours", "value": "Increased"}, {"measurement": "TNF-α mRNA", "setting": "MG63 cells; 12-72 hours", "value": "Not detected"}, {"measurement": "TNF-β mRNA", "setting": "MG63 cells; 12-72 hours", "value": "Not detected"}, {"measurement": "maximum increase of interferon-β mRNA level", "setting": "MG63 cells; by 48 h", "value": 2100, "unit": "%"}, {"measurement": "increase of interferon-β mRNA level", "setting": "MG63 cells; within 12 h", "value": 500, "unit": "%"}, {"measurement": "cell survival rate", "setting": "[6]; 2 μM, 72 h", "value": 21, "unit": "%"}, {"measurement": "reduction of MG63 cell survival", "setting": "[6]; 2 μM, 72 hours", "value": "approximately 80%"}, {"measurement": "cell death", "setting": "[6]; 20 μM", "value": "about 95%"}, {"measurement": "cell death", "setting": "[6]; 50 μM", "value": "~100", "unit": "%"}]}]}
